Laboratory results from PubChem BioAssay (NCI).
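The compound was tested at five concentrations on cells cultured in 96-well plates, with a 48-hour exposure period. At the TGI there is no net growth.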

Legend:
Assay in all cases: NCI tumour cell line growth inhibition, 48 h
RPMI-8226 leukemia = tested on: RPMI-8226 leukemia
SW-620 colon = tested on: SW-620 colon
SN12C renal = tested on: SN12C renal
SNB-75 CNS = tested on: SNB-75 CNS
NCI-H522 lung = tested on: NCI-H522 lung
UACC-62 melanoma = tested on: UACC-62 melanoma
SF-295 CNS = tested on: SF-295 CNS
NCI-H460 lung = tested on: NCI-H460 lung
M14 melanoma = tested on: M14 melanoma
MDA-MB-435 = tested on: MDA-MB-435
HS 578T breast = tested on: HS 578T breast
OVCAR-8 ovarian = tested on: OVCAR-8 ovarian
SK-MEL-5 melanoma = tested on: SK-MEL-5 melanoma
SF-268 CNS = tested on: SF-268 CNS
MDA-MB-231 breast = tested on: MDA-MB-231 breast
SK-MEL-28 melanoma = tested on: SK-MEL-28 melanoma
KM12 colon = tested on: KM12 colon
OVCAR-4 ovarian = tested on: OVCAR-4 ovarian
CCRF-CEM leukemia = tested on: CCRF-CEM leukemia

SMILES | TGI (RPMI-8226 leukemia) [µM] | TGI (SW-620 colon) [µM] | TGI (SN12C renal) [µM] | TGI (SNB-75 CNS) [µM] | TGI (NCI-H522 lung) [µM] | TGI (UACC-62 melanoma) [µM] | TGI (SF-295 CNS) [µM] | TGI (NCI-H460 lung) [µM] | TGI (M14 melanoma) [µM] | TGI (MDA-MB-435) [µM] | TGI (HS 578T breast) [µM] | TGI (OVCAR-8 ovarian) [µM] | TGI (SK-MEL-5 melanoma) [µM] | TGI (SF-268 CNS) [µM] | TGI (MDA-MB-231 breast) [µM] | TGI (SK-MEL-28 melanoma) [µM] | TGI (KM12 colon) [µM] | TGI (OVCAR-4 ovarian) [µM] | TGI (CCRF-CEM leukemia) [µM]
CNC(=O)CNC(=O)C(Cc1ccc(NC(=O)CCCCC(C)=O)cc1)NC(=O)C(CCC(=O)OCc1ccccc1)NC(=O)OC(C)(C)C (configuration not stated) | > 100 | > 100 | > 100 | > 100 | > 100 | > 100 | > 100 | > 100 | > 100 | > 100 | > 100 | > 100 | > 100 | > 100 | > 100 | > 100 | > 100 | > 100 | –
COc1ccc(N=Nc2ccc3oc(=O)c(C(=O)Nc4ccc(Cl)cc4)cc3c2)cc1 | > 10 | > 10 | > 10 | > 10 | > 10 | – | > 10 | > 10 | > 10 | > 10 | > 10 | > 10 | > 10 | > 10 | > 10 | > 10 | > 10 | > 10 | –
CCCC(=O)Oc1ccc2c(C)cc(=O)oc2c1OC(=O)CCC | > 100 | > 100 | > 100 | > 100 | – | > 100 | > 100 | – | > 100 | > 100 | > 100 | > 100 | > 100 | > 100 | > 100 | > 100 | > 100 | > 100 | > 100
COc1ccc([C@]23CCN(S(=O)(=O)c4ccc(C)cc4)[C@H]2[C@H](CO)C2(CC3)OCC(C)(C)CO2)cc1OC | > 100 | > 100 | > 100 | > 100 | > 100 | > 100 | > 100 | > 100 | > 100 | > 100 | – | > 100 | > 100 | – | > 100 | > 100 | > 100 | > 100 | > 100
CC(=O)N/N=C1/CC[C@@]2(C)C(=CC[C@H]3C4CCC(C(C)CCCC(C)C)[C@@]4(C)CCC32)C1(C)C (some centres not stated) | > 100 | > 100 | > 100 | > 100 | > 100 | > 100 | > 100 | > 100 | > 100 | > 100 | > 100 | > 100 | > 100 | > 100 | – | > 100 | > 100 | > 100 | > 100
CC(C)c1cccc(C(=O)NCCN(C)C)c1[N+](=O)[O-] | – | > 100 | > 100 | > 100 | > 100 | > 100 | > 100 | > 100 | > 100 | > 100 | > 100 | > 100 | > 100 | > 100 | > 100 | > 100 | > 100 | – | > 100
CC1CN=C(NS(=O)(=O)c2cc(C(=O)Nc3ccc(F)cc3)c(Cl)cc2S)NN1 (configuration not stated) | > 100 | > 100 | > 100 | – | 94.2 | > 100 | > 100 | > 100 | > 100 | > 100 | – | > 100 | > 100 | > 100 | > 100 | > 100 | > 100 | > 100 | > 100
COc1cc2ccc1OCc1cccc(n1)COc1ccc(cc1OC)C=Nc1ccc(cc1)-c1ccc(cc1)N=C2 | – | > 100 | > 100 | > 100 | > 100 | > 100 | > 100 | > 100 | > 100 | > 100 | > 100 | > 100 | > 100 | > 100 | > 100 | – | > 100 | > 100 | > 100
C[C@H](CCC(=O)O)[C@H]1CC[C@H]2[C@@H]3[C@H](O)C[C@@H]4C[C@H](O)CC[C@]4(C)[C@H]3CC[C@]12C | 54.8 | > 100 | > 100 | 57.4 | > 100 | > 100 | – | 92 | 85.2 | > 100 | – | 37.7 | – | > 100 | > 100 | > 100 | > 100 | > 100 | > 100
CC1(C)N=C(C(=O)c2ccccc2)N(O)C1(O)c1ccccc1 (configuration not stated) | > 100 | > 100 | > 100 | > 100 | – | > 100 | > 100 | > 100 | > 100 | > 100 | > 100 | > 100 | > 100 | > 100 | > 100 | > 100 | > 100 | > 100 | > 100
